In patent publication US6743575B2, “Compositions and methods for the preservation of living tissues” (Biostore New Zealand Ltd., priority 1996, dated 2004):

System: mouse embryos
Assay: Storage of mouse embryos at 4° C., survival assessed by hatching in subsequent culture
Format: cell-based
Conditions: for ranking of Class I and Class II solutes for hatching of stored embryos: storage 1-3 days at 4° C., Class I:Class II 1.6:1, 1.75 mM CaSO4
Experimental: The efficacy of the solutions of the present invention in the preservation of mouse embryos was tested as described below. As embryos consist of rapidly dividing cells, they are difficult to arrest, and therefore provide a sensitive test of storage solutions. Embryos also have the advantage that survival in storage can be assessed after 1-5 days by their ability to hatch in subsequent culture.
Viable mouse embryos were stored for periods of 1, 2 or 3 days at 4° C. in either PBS or an aqueous solution of either raffinose, trehalose, sucrose or lactose (Class I solutes), together with a solute selected from the group consisting of trimethyl amine oxide (TMAO), betaine, taurine, sarcosine, glucose, mannose, fructose, ribose, galactose, sorbitol, mannitol, inositol and taurine (Class II solutes), at a ratio of Class I solute to Class II solute of 1.6:1. Each Class I/Class II solution also contained calcium sulfate at a concentration of 1.75 mM. The solutions also contained 0.1-1% bovine serum albumin (BSA) and 25 mg/L of kanamycin sulfate. All reagents were obtained from Sigma Chemical Company (St. Louis, Mo.). Survival of the embryos was assessed by subsequent culture in Dulbecco's Modified Eagles Medium (DMEM, Life Technologies, Grand Island, N.Y.) and was expressed both as the number of live embryos present after storage and the number of embryos which hatched after 48 hours in culture at 37° C.
Mouse embryos were incubated with either sodium butyrate or a Class II solute at either, room temperature, 30° C. or 4° C. prior to storage in Solution 70/30 for up to five days at 4° C. […] Sodium butyrate replaced sodium chloride at the same concentration in PBS. FIGS. 8A, B and C show the percentage of mouse embryos hatching after 1, 2 and 3 days, respectively, in storage following pretreatment with sodium butyrate at concentrations of 5, 10 or 15 mM for either 10, 20 or 30 minutes. FIGS. 8D, E and F show the percentage of mouse embryos alive after 1, 2 and 3 days, respectively, in storage following pretreatment with sodium butyrate at concentrations of 5, 10 or 15 mM for either 10, 20 or 30 minutes. Pretreatment with sodium butyrate allowed up to 80% of embryos to hatch following three days of storage in Solution 70/30. After 5 days of storage in Solution 70/30 following pretreatment with higher concentrations of sodium butyrate, up to 70% of embryos hatched compared to 2% with no pretreatment (see FIG. 9). Embryos stored in PBS without pretreatment lasted no longer than 3 days. […] FIGS. 10A, B, C and D show the survival of mouse embryos after up to four days of storage in Solution 70/30 at 4° C. following pretreatment with 25 mM sodium butyrate for 5, 10 or 15 minutes at room temperature.

Structure (SMILES)	ranking of Class I and Class II solutes for hatching of stored embryos	embryos hatched (5 days of storage in Solution 70/30 after pretreatment with higher concentrations of sodium butyrate)	embryos hatching (three days of storage in Solution 70/30 at 4° C. after pretreatment with sodium butyrate)
OC[C@H]1O[C@H](OC[C@H]2O[C@H](O[C@]3(CO)O[C@H](CO)[C@@H](O)[C@@H]3O)[C@H](O)[C@@H](O)[C@@H]2O)[C@H](O)[C@@H](O)[C@H]1O [Raffinose, raffinose]	best Class I solute		
C[N+](C)(C)[O-] [TMAO, trimethyl amine oxide]	best Class II solute		
C[N+](C)(C)CC(=O)O [betaine]	second best		
CCCC(=O)[O-].[Na+] [sodium butyrate]		up to 70%	up to 80%
OC[C@H]1O[C@H](O[C@H]2O[C@H](CO)[C@@H](O)[C@H](O)[C@H]2O)[C@H](O)[C@@H](O)[C@@H]1O [trehalose]	second best		
